This is an account of results in patent US5637625A, “Propofol microdroplet formulations” (Research Triangle Pharmaceuticals Ltd., priority 1996, dated 1997).

In one series the test system is laboratory rats. Briefly: Efficacy for general anesthesia in rats (i.v. tail vein), with mortality. The series is classed as in vivo, female CD laboratory rats. As to conditions: 20-21 mg/kg. How it is done:
Diprivan® (Diprivan® 1%, Injection propofol, 10 mg/ml, Emulsion for I.V. Administration, Stuart Pharmaceuticals) was purchased. It is described by the manufacturer as a sterile, nonpyrogenic emulsion containing 10 mg/mL propofol, 100 mg/ml soybean oil, 12 mg/mL lecithin in an aqueous vehicle. It was maintained at room temperature as described by the manufacturer. Samples were taken using aseptic technique.
Lecithin-coated propofol microdroplets containing 6.8% propofol and Diprivan® were injected into the tail veins of 150 gram female CD laboratory rats (Charles River Laboratories, Wilmington, Mass.) restrained in a Decapicone® (Braintree Scientific, Braintree, Mass.). The volumes of 6.8% (w/v) microdroplet propofol injected were 10, 20, 30 or 50 μL. The injections were accomplished in 2-3 seconds. Volumes of 1% Diprivan® injections were 100, 200, 300 or 500 μL. The injections were accomplished in 5-15 seconds. The animals were observed during the injections, and the time required for loss of consciousness ("time to unconsciousness") was recorded. Then the animals were removed from the Decapicone® and placed on their sides and were tested for startle response to a loud clap. […] The time to regain startle response ("time to startle response") was recorded. The time to recover the righting response, indicated by spontaneous attempt to stand, was also measured. […]

For series [1] the following is noted: cited from earlier work.
The conditions of series [2]: pure oily state; cited from earlier work.

For `CC(C)c1cccc(C(C)C)c1O` [Propofol, 2,6-diisopropylphenol], the “Mortality (in words)” value in the series on laboratory rats was “significant mortality”. In addition, the Water solubility entry in series [1] is “water-insoluble”. The Irritancy result in series [2] is given as “irritant”.
